Experimental data from patent US6346532B1, “Amide derivatives or salts thereof” (Yamanouchi Pharmaceutical Co., Ltd., priority 1997, dated 2002).
Counter-ions that a name gives are not always drawn.

| melting point | SMILES |
| --- | --- |
| 202 to 204 °C | Cl.O=C(CCc1ccccn1)Nc1ccc(CCNC[C@H](O)c2ccccc2)cc1 |
| 190 to 193 °C | Cl.Cl.O=C(Cc1nccn1Cc1c(F)c(F)c(F)c(F)c1F)Nc1ccc(CCNC[C@H](O)c2ccccc2)cc1 |
| 205 to 210 °C (dec.) | Cl.Cl.Nc1nc(C(=O)C(=O)Nc2ccc(CCNC[C@H](O)c3ccccc3)cc2)cs1 |
| 221 to 224 °C | Cl.Cl.O=C(Cc1nc[nH]n1)Nc1ccc(CCNC[C@H](O)c2ccccc2)cc1 |
| 223 to 225 °C | O=C(Nc1ccc(CCNCC(O)c2ccccc2)cc1)c1ccccn1 (stereo not drawn) (as salt: hydrochloride) |
| 234 to 235 °C | Cl.O=C(Cc1ccc2ccccc2n1)Nc1ccc(CCNC[C@H](O)c2ccccc2)cc1 |
| 236 to 238 °C | O=C(Cc1cnccn1)Nc1ccc(CCNCC(O)c2ccccc2)cc1 (stereo not drawn) (as salt: hydrochloride) |
| 194 to 196 °C | Cl.O=C(Cc1ccccn1)Nc1ccc(CCNCC(O)c2ccccc2F)cc1 (stereo not drawn) |
| 150 to 152 °C | Nc1cccc(CC(=O)Nc2ccc(CCNCC(O)c3ccccc3)cc2)n1 (stereo not drawn) (as salt: hydrochloride) |
| 233 to 234 °C | Cl.Cl.O=C(Cc1nccn1Cc1cccc(I)c1)Nc1ccc(CCNC[C@H](O)c2ccccc2)cc1 |
| 195 to 198 °C | Cl.O=C(Cc1ccncc1)Nc1ccc(CCNC[C@H](O)c2ccccc2)cc1 |
| 223 to 225 °C | Cl.O=C(Cc1ccccn1)Nc1ccc(CCNCC(O)c2ccc(F)cc2)cc1 (stereo not drawn) |
| 197 to 203 °C | Cl.Cl.O=C(Cc1nccn1Cc1ccc(C(F)(F)F)cc1)Nc1ccc(CCNC[C@H](O)c2ccccc2)cc1 |
| 203 to 209 °C | O=C(Cc1nccn1Cc1ccc(Cl)cc1)Nc1ccc(CCNC[C@H](O)c2ccccc2)cc1 (as salt: hydrochloride) [Example 23, (R)-2-[1-(4-Chlorobenzyl)-1H-imidazol-2-yl]-4′-[2-[(2-hydroxy-2-phenylethyl)amino]ethyl]acetanilide dihydrochloride] |
| 225 to 228 °C | Cl.O=C(Cc1nnnn1Cc1ccc(F)cc1)Nc1ccc(CCNC[C@H](O)c2ccccc2)cc1 |
| 233 to 235 °C | Cl.O=C(CC1=NNN(Cc2ccc(F)cc2)N1)Nc1ccc(CCNC[C@H](O)c2ccccc2)cc1 |
| 162 to 165 °C | Cl.Cl.Cl.O=C(Cc1nccn1-c1ccc2ccccc2n1)Nc1ccc(CCNC[C@H](O)c2ccccc2)cc1 |
| 230 to 235 °C | Cl.Cl.O=C(Cc1nccn1Cc1ccc(F)cc1)Nc1ccc(CCNC[C@H](O)c2ccccc2)cc1 |
| 221 to 222 °C | Cl.O=C(Cc1ccccn1)Nc1ccc(CCNC[C@H](O)c2cccc(Cl)c2)cc1 |

| melting point | SMILES |
| --- | --- |
| 216 to 217 °C | Cc1cccnc1CC(=O)Nc1ccc(CCNC[C@H](O)c2ccccc2)cc1.Cl |
| 237 to 240 °C | Cl.Cl.O=C(Cn1cncn1)Nc1ccc(CCNC[C@H](O)c2ccccc2)cc1 |
| 259 to 261 °C | Cl.O=C(Cc1nnn[nH]1)Nc1ccc(CCNC[C@H](O)c2ccccc2)cc1 |
| 228 to 233 °C (dec.) | Cl.Cl.O=C(Cc1nc2ccccc2s1)Nc1ccc(CCNC[C@H](O)c2ccccc2)cc1 |
| 252 to 256 °C | CS(=O)(=O)Nc1nc(CC(=O)Nc2ccc(CCNC[C@H](O)c3ccccc3)cc2)cs1.Cl |
| 205 to 208 °C | CCOC(=O)Nc1nc(CC(=O)Nc2ccc(CCNC[C@H](O)c3ccccc3)cc2)ns1.Cl |
| 242 to 245 °C | CC(=O)Nc1nc(CC(=O)Nc2ccc(CCNC[C@H](O)c3ccccc3)cc2)cs1.Cl |
| 244 to 246 °C | Cl.Cl.Nc1nc(CC(=O)Nc2ccc(CCNC[C@H](O)c3ccccc3)cc2)ns1 |
| 158 to 165 °C | O=C(Cc1nc2ccccc2[nH]1)Nc1ccc(CCNC[C@H](O)c2ccccc2)cc1 [Example 91, (R)-2-(1H-benzimidazol-2-yl)-4′-[2-[(2-hydroxy-2-phenylethyl)amino]-ethyl]acetanilide] |
| 232 to 235 °C | Cl.O=C(CC1=NNN(Cc2ccc(Cl)c(Cl)c2)N1)Nc1ccc(CCNC[C@H](O)c2ccccc2)cc1 |
| 161 to 162 °C | Cl.Cl.O=C(Cc1csc2nccn12)Nc1ccc(CCNC[C@H](O)c2ccccc2)cc1 |
| 132 to 133 °C | Cl.Cl.O=C(Nc1ccc(CCNC[C@H](O)c2ccccc2)cc1)Nc1ccccn1 |
| 204 to 207 °C | Cc1cn(Cc2ccc(F)cc2)c(CC(=O)Nc2ccc(CCNC[C@H](O)c3ccccc3)cc2)n1.Cl.Cl |
| 223 to 224 °C | O=C(Cc1ccccn1)Nc1ccc(CCNCC(O)c2ccccc2)cc1 (stereo not drawn) (as salt: hydrochloride) |
| 140 to 143 °C | Cl.Cl.O=C(Cc1cn(Cc2ccccc2Cl)cn1)Nc1ccc(CCNC[C@H](O)c2ccccc2)cc1 |
| 214 to 216 °C | Cl.O=C(Cc1cccc(OCc2ccccc2)n1)Nc1ccc(CCNC[C@H](O)c2ccccc2)cc1 [60] |
| 219 to 223 °C | Cc1cnc(CC(=O)Nc2ccc(CCNC[C@H](O)c3ccccc3)cc2)n1Cc1ccc(F)cc1.Cl.Cl |
| 237 to 238 °C | Cl.O=C(Cc1cccc(OCc2ccccc2)n1)Nc1ccc(CCNC[C@H](O)c2ccccc2)cc1 [16] |
| 213 to 217 °C | Cl.Cl.O=C(Cc1nccn1Cc1c(F)ccc(F)c1F)Nc1ccc(CCNC[C@H](O)c2ccccc2)cc1 |

| melting point | SMILES |
| --- | --- |
| 214 to 215 °C | Cl.O=C(Cc1ccccn1)Nc1ccc(CCNCC(O)c2cccc(F)c2)cc1 (stereo not drawn) |
| 240 to 242 °C | O=C(Cc1nnnn1Cc1ccc(Cl)c(Cl)c1)Nc1ccc(CCNCC(O)c2ccccc2)cc1 (stereo not drawn) (as salt: hydrochloride) |
| 237 to 243 °C | Cl.O=C(Cc1nccn1Cc1ccc([N+](=O)[O-])cc1)Nc1ccc(CCNC[C@H](O)c2ccccc2)cc1 |
| 263 to 265 °C | Cl.Cl.O=C(Nc1ccc(CCNC[C@H](O)c2ccccc2)cc1)c1cccnc1 |
| 222 to 225 °C | Cl.Cl.O=C(Cc1nccn1Cc1ccc(I)cc1)Nc1ccc(CCNC[C@H](O)c2ccccc2)cc1 |
| 203 to 207 °C | Cl.Cl.O=C(Cc1ncc[nH]1)Nc1ccc(CCNC[C@H](O)c2ccccc2)cc1 |
| 248 to 251 °C | Cl.O=C(Cc1cccc(Cl)n1)Nc1ccc(CCNC[C@H](O)c2ccccc2)cc1 |
| 229 to 232 °C | Cl.O=C(Cn1cccn1)Nc1ccc(CCNC[C@H](O)c2ccccc2)cc1 |
| 209 to 213 °C | Cl.Cl.O=C(Cc1nccn1Cc1cc(F)c(F)c(F)c1)Nc1ccc(CCNC[C@H](O)c2ccccc2)cc1 |
| 210 to 213 °C | Cl.O=C(Cc1n[nH]c(S)n1)Nc1ccc(CCNC[C@H](O)c2ccccc2)cc1 |
| 140 to 143 °C | Cl.Cl.O=C(Cc1cn(Cc2cccc(Cl)c2)cn1)Nc1ccc(CCNC[C@H](O)c2ccccc2)cc1 |
| 208 to 214 °C | Cl.Cl.O=C(Cc1nccn1-c1ccc2ccccc2c1)Nc1ccc(CCNC[C@H](O)c2ccccc2)cc1 |
| 236 to 238 °C | Cl.O=C(Cc1cccnc1)Nc1ccc(CCNC[C@H](O)c2ccccc2)cc1 |
| 222 to 224 °C | Cl.Cl.O=C(Cc1n[nH]c(SCc2ccccc2)n1)Nc1ccc(CCNC[C@H](O)c2ccccc2)cc1 |
| 221 to 223 °C | Cl.Cl.O=C(Cc1nccn1Cc1ccc(Br)cc1)Nc1ccc(CCNC[C@H](O)c2ccccc2)cc1 |
| 208 to 210 °C | O=C(Cc1ncccn1)Nc1ccc(CCNC[C@H](O)c2ccccc2)cc1 (as salt: hydrochloride) [Example 104, (R)-4′-[2-[(2-hydroxy-2-phenylethyl)amino]ethyl]-2-(2-pyrimidinyl]acetanilide hydrochloride] |
| 225 to 226 °C | Cl.O=C(Cc1ccccn1)Nc1ccc(OCCNC[C@H](O)c2ccccc2)cc1 |
| 139 to 141 °C | Cl.Cl.O=C(Cc1cn(Cc2ccccc2)cn1)Nc1ccc(CCNC[C@H](O)c2ccccc2)cc1 |
| > 230 °C (dec.) | Cl.Cl.N=C(N)Nc1nc(CC(=O)Nc2ccc(CCNC[C@H](O)c3ccccc3)cc2)cs1 |
